Laboratory results taken from ChEMBL document CHEMBL5154709, “Tetrazole derivatives bearing benzodiazepine moiety-synthesis and action mode against virulence of Candida albicans” (Eur J Med Chem, 2022).
Converted amounts (≈) assume the structure as drawn.

Columns and labels:
Candida albicans [1] = experiment: Antifungal activity against Candida albicans SC5314 assessed as inhibition of fungal growth at 0.25 ug/ml incubated for 48 hrs by M27-A3 based microdilution method relative to control; format: functional
Candida albicans [2] = experiment: Antifungal activity against Candida albicans SC5314 assessed as inhibition of fungal growth at 0.03125 ug/ml incubated for 48 hrs by M27-A3 based microdilution method relative to control; format: functional
Candida albicans [3] = experiment: Antifungal activity against Candida albicans SC5314 assessed as inhibition of fungal growth at 8 ug/ml incubated for 48 hrs by M27-A3 based microdilution method relative to control; format: functional
Candida albicans [4] = experiment: Antifungal activity against Candida albicans SC5314 assessed as inhibition of fungal growth at 1 ug/ml incubated for 18 hrs by M27-A3 based microdilution method relative to control; format: functional
Candida albicans [5] = experiment: Antifungal activity against Candida albicans SC5314 assessed as inhibition of fungal growth at 2 ug/ml incubated for 48 hrs by M27-A3 based microdilution method relative to control; format: functional
Candida albicans [6] = experiment: Antifungal activity against Candida albicans SC5314 assessed as inhibition of fungal growth at 0.5 ug/ml incubated for 18 hrs by M27-A3 based microdilution method relative to control; format: functional
Candida albicans [7] = experiment: Antifungal activity against Candida albicans SC5314 assessed as inhibition of fungal growth at 4 ug/ml incubated for 48 hrs by M27-A3 based microdilution method relative to control; format: functional
Candida albicans [8] = experiment: Antifungal activity against Candida albicans SC5314 assessed as inhibition of fungal growth at 8 ug/ml incubated for 18 hrs by M27-A3 based microdilution method relative to control; format: functional
Candida albicans [9] = experiment: Antifungal activity against Candida albicans SC5314 assessed as inhibition of fungal growth at 16 ug/ml incubated for 48 hrs by M27-A3 based microdilution method relative to control; format: functional
Candida albicans [10] = experiment: Antifungal activity against Candida albicans SC5314 assessed as inhibition of fungal growth at 0.0625 ug/ml incubated for 18 hrs by M27-A3 based microdilution method relative to control; format: functional
Candida albicans [11] = experiment: Antifungal activity against Candida albicans SC5314 assessed as inhibition of fungal growth at 0.125 ug/ml incubated for 48 hrs by M27-A3 based microdilution method relative to control; format: functional
Candida albicans [12] = experiment: Antifungal activity against Candida albicans SC5314 assessed as inhibition of fungal growth at 1 ug/ml incubated for 48 hrs by M27-A3 based microdilution method relative to control; format: functional
Candida albicans [13] = experiment: Antifungal activity against Candida albicans SC5314 assessed as inhibition of fungal growth at 0.125 ug/ml incubated for 18 hrs by M27-A3 based microdilution method relative to control; format: functional
Candida albicans [14] = experiment: Antifungal activity against Candida albicans SC5314 assessed as inhibition of fungal growth at 0.25 ug/ml incubated for 18 hrs by M27-A3 based microdilution method relative to control; format: functional
Candida albicans [15] = experiment: Antifungal activity against Candida albicans SC5314 assessed as inhibition of fungal growth at 2 ug/ml incubated for 18 hrs by M27-A3 based microdilution method relative to control; format: functional
Candida albicans [16] = experiment: Antifungal activity against Candida albicans SC5314 assessed as inhibition of fungal growth at 0.0625 ug/ml incubated for 48 hrs by M27-A3 based microdilution method relative to control; format: functional
Candida albicans [17] = experiment: Antifungal activity against Candida albicans SC5314 assessed as inhibition of fungal growth at 4 ug/ml incubated for 18 hrs by M27-A3 based microdilution method relative to control; format: functional
Candida albicans [18] = experiment: Antifungal activity against Candida albicans SC5314 assessed as inhibition of fungal growth at 16 ug/ml incubated for 18 hrs by M27-A3 based microdilution method relative to control; format: functional
Candida albicans [19] = experiment: Antifungal activity against Candida albicans SC5314 assessed as inhibition of fungal growth at 0.5 ug/ml incubated for 48 hrs by M27-A3 based microdilution method relative to control; format: functional
Candida albicans [20] = experiment: Antifungal activity against Candida albicans SC5314 assessed as inhibition of fungal growth at 0.03125 ug/ml incubated for 18 hrs by M27-A3 based microdilution method relative to control; format: functional
Candida albicans [21] = experiment: Antifungal activity against Candida albicans assessed as inhibition of fungal growth measured after 48 hrs in presence of exogenous ergosterol by M27-A3 based broth microdilution; format: functional
[22] = Toxicity in Galleria mellonella larvae assessed as melanization of larvae at 0.23 ug/ml measured every 24 hrs upto 5 days relative to control; settings: 120 h, at 0.23 µg/mL, time < 5 day
Candida albicans [23] = experiment: Antifungal activity against Candida albicans assessed as inhibition of fungal growth measured after 48 hrs by M27-A3 based broth microdilution; format: functional
[24] = Toxicity in Galleria mellonella larvae assessed as melanization of larvae at 0.05 ug/ml measured every 24 hrs upto 5 days relative to control; settings: 120 h, at 0.05 µg/mL, time < 5 day

| SMILES | inhibition at 0.25 µg/mL (Candida albicans [1]) | inhibition at 0.03125 µg/mL (Candida albicans [2]) | inhibition at 8 µg/mL (Candida albicans [3]) | inhibition at 1 µg/mL (Candida albicans [4]) | inhibition at 2 µg/mL (Candida albicans [5]) | inhibition at 0.5 µg/mL (Candida albicans [6]) | inhibition at 4 µg/mL (Candida albicans [7]) | inhibition at 8 µg/mL (Candida albicans [8]) | inhibition at 16 µg/mL (Candida albicans [9]) | inhibition at 0.0625 µg/mL (Candida albicans [10]) | inhibition at 0.125 µg/mL (Candida albicans [11]) | inhibition at 1 µg/mL (Candida albicans [12]) | inhibition at 0.125 µg/mL (Candida albicans [13]) | inhibition at 0.25 µg/mL (Candida albicans [14]) | inhibition at 2 µg/mL (Candida albicans [15]) | inhibition at 0.0625 µg/mL (Candida albicans [16]) | inhibition at 4 µg/mL (Candida albicans [17]) | inhibition at 16 µg/mL (Candida albicans [18]) | inhibition at 0.5 µg/mL (Candida albicans [19]) | inhibition at 0.03125 µg/mL (Candida albicans [20]) | other results |
| --- | --- | --- | --- | --- | --- | --- | --- | --- | --- | --- | --- | --- | --- | --- | --- | --- | --- | --- | --- | --- | --- |
| O=C1CN=C(c2ccccc2Br)c2cc(F)ccc2N1 | 99.1% | 99.1% | 99.1% | 99% | 99.1% | 99.2% | 99.2% | 99.3% | 99.1% | 98.7% | 99.1% | 99.2% | 99.1% | 98.9% | 99% | 98.7% | 99.2% | 98.9% | 99.2% | 99.1% |  |
| CCC(C)n1ncn(-c2ccc(N3CCN(c4ccc(OCC5COC(Cn6cncn6)(c6ccc(Cl)cc6Cl)O5)cc4)CC3)cc2)c1=O (centres undefined) [ITRACONAZOLE] |  |  |  |  |  |  |  |  |  |  |  |  |  |  |  |  |  |  |  |  | MIC (Candida albicans [21]): 0.5 µg/mL; Activity [22]: 13%; MIC (Candida albicans [23]): 0.32 µg/mL (≈ 0.453 µM) |
| COc1ccc(-n2nnnc2SCCCCl)cc1 | 99.9% | 99.7% | 99.8% | 99.9% | 99.8% | 99.9% | 99.8% | 99.8% | 99.8% | 99.9% | 99.9% | 99.8% | 99.9% | 100% | 100% | 99.8% | 99.8% | 99.9% | 99.7% | 99.8% |  |
| ClCCCSc1nnnn1-c1ccccc1 | 98.9% | 98.9% | 98.8% | 98.5% | 98.6% | 98.3% | 98.9% | 98.7% | 98.9% | 98.6% | 98.8% | 98.6% | 98.6% | 98.8% | 98.5% | 98.8% | 98.8% | 98.7% | 98.4% | 98.8% |  |
| Cc1ccc(-c2nnn(CCCN3C(=O)CN=C(c4ccccc4Br)c4cc(F)ccc43)n2)cc1 | 98.2% | 100% | 97.6% | 93.8% | 96.4% | 92.3% | 95.4% | 100% | 95.4% | 99.2% | 97.2% | 95% | 98.5% | 97.8% | 98.1% | 96.5% | 94.7% | 100% | 95.8% | 100% |  |
| O=C1CN=C(c2ccccc2Br)c2cc(F)ccc2N1CCCn1nnc(-c2ccccc2)n1 | 99% | 100% | 98.5% | 99.4% | 98.4% | 99.5% | 98.9% | 98.4% | 98.4% | 99.4% | 98.4% | 98.9% | 99.8% | 99.8% | 99.6% | 98.6% | 99.6% | 98.5% | 99.3% | 100% |  |
| O=C1CN=C(c2ccccc2Br)c2cc(F)ccc2N1CCCSc1nnnn1-c1ccccc1 | 99.7% | 99.9% | 99.8% | 99.8% | 99.7% | 99.9% | 99.8% | 99.9% | 99.8% | 99.7% | 99.8% | 99.7% | 99.9% | 99.8% | 99.8% | 99.7% | 99.9% | 99.8% | 99.8% | 100% |  |
| C[C@@H]1[C@H](O)[C@@H](C)/C=C/C=C/C=C/C=C/C=C/C=C/C=C/[C@H](O[C@@H]2O[C@H](C)[C@@H](O)[C@H](N)[C@@H]2O)C[C@@H]2O[C@](O)(C[C@@H](O)C[C@@H](O)[C@H](O)CC[C@@H](O)C[C@@H](O)CC(=O)O[C@H]1C)C[C@H](O)[C@H]2C(=O)O [AMPHOTERICIN B] | 100% | 100% | 100% | 100% | 100% | 100% | 100% | 100% | 100% | 100% | 100% | 100% | 100% | 100% | 100% | 100% | 100% | 100% | 100% | 100% | Activity [24]: 10% |
| COc1ccc(-n2nnnc2SCCCN2C(=O)CN=C(c3ccccc3Br)c3cc(F)ccc32)cc1 | 98.6% | 98.8% | 98.7% | 98.8% | 98.8% | 98.7% | 98.8% | 98.6% | 98.5% | 98.7% | 98.9% | 98.9% | 98.8% | 98.5% | 98.7% | 98.8% | 98.8% | 98.1% | 98.8% | 98.8% |  |
